Where no end group is shown, it is not given here.
Assays:
p53, p21, pRb [1] = assay: Western blot of p53, p21 and phospho-Rb in cultured CAC; assay type: cell-based, human; conditions: induced by AGE in cultured CAC; FIG. 2B
From the text: To this end, the effect of AGE treatment, alone or in combination with UAG, was first evaluated on SA-β-gal activity. […] In addition, AGE-induced p53 accumulation and senescent like-growth arrest were prevented by silencing p53 (FIG. 2C).
(§1) Western Blot Analysis—CAC from healthy donors cultured in the presence of UAG, in combination or not with AGE, and CAC recovered from diabetic patients treated with saline or UAG were lysed. Protein concentration was detected as previously described (Ref. 24). 50 μg of proteins were separated on SDS-polyacrylamide gels and transferred to nitrocellulose membranes. Reaction with anti-p53, anti p21 and anti-phospho-Rb antibodies and detection with an enhanced chemiluminescence detection system (Amersham Biosciences) were performed as described previously (Ref. 20).

CAC [2] = assay: Arterial morphogenesis by Q-RT-PCR (Ephrin B2, Notch1, Notch4, EphB4) of CAC from treated patients; assay type: in vivo, human; conditions: cells obtained from treated patients, cultured with IL-3; FIG. 3D
Experimental: To confirm their vascular features, the cells recovered from patients and controls were cultured with IL-3; which is able to induce expansion and arterial morphogenesis of CD45^+ cells derived from both peripheral blood and BM (Ref. 28).
RNA isolation and quantitative real-time PCR—CAC from diabetic patients, healthy subjects and mice treated with UAG or saline were cultured in EGM-2 medium. Human arterial and venous cells were used as a positive controls. mRNA quantification was performed by Q-RT-PCR, as previously described (Ref. 24). The relative expression of Ephrin B2, Notch1, Notch4 and EphB4 were calculated by using comparative threshold cycle methods. The human and murine primer sequences used were described (Refs. 25, 26).

p53, p21, pRb [3] = assay: Western blot of p53, p21, phospho-Rb in CAC recovered from UAG-treated diabetic patients; parameters: species or system human; conditions: type 2 diabetic patients, UAG administered in vivo, CAC recovered after 12 hours; FIG. 2E
Experimental: (§2) After 12 hours of treatment, CAC were recovered from UAG treated and untreated patients and cultured.
(§3) All the subjects underwent the following testing session: • UAG (3.0 μg/kg/h iv. as infusion for 12 h from 0 to 12 hours); • isotonic saline (infusion from 0 to 12 hours).
as §1

CAC [4] = assay: CAC mobilization assay in healthy subjects and diabetic patients; assay type: in vivo, human; conditions: diabetic patients compared to normal subjects, treated for 6 hours; FIG. 3B
Experimental: This observation led to investigate the effect of UAG treatment on BM CAC mobilization. To this end, normal subject and diabetic patients were treated with UAG or saline for 6 hours. After treatment, CAC were recovered from 4 control subjects and 4 diabetic patients, analyzed by FACS analysis and counted. […] Black lines refer to preimmune IgG used as negative control and grey lines refer to surface marker expression. Similar results were obtained when CAC from untreated diabetic patients or untreated or treated healthy subjects were analyzed (data not shown).
as §3
Mobilization assay—CAC recovered from healthy subjects and diabetic patients, treated with UAG or saline for 6 h and 12 h, were evaluated. Total number of MNC was counted by 3 independent investigators. The percentage of CAC was calculated by comparing CAC obtained from diabetic patients and healthy donors, treated for 6 h and 12 h with UAG, AG or saline, to CAC recovered at time 0.

GHSR-1a = GHSR-1a (Homo sapiens, UniProt Q92847); conditions: Ref. 7; cited from earlier work
CAC membranes = assay: Saturation binding experiment on CAC membranes (Scatchard analysis); parameters: species or system human
CAC [5] = assay: Senescence of CAC recovered from type 2 diabetic patients treated with UAG; parameters: species or system human; conditions: UAG administered in vivo, CAC recovered after 12 hours, FIG. 2D
Experimental: as §2, §3
CAC Senescence—Senescence was evaluated by acidic β-gal activity on CAC recovered from normal subjects cultured in EGM2 medium for 4 days with UAG or AGE+UAG and saline- or UAG-treated diabetic patients (Ref. 22). Briefly, CAC were washed in phosphate-buffered saline, fixed for 3 min at room temperature in 2% paraformaldehyde, washed, and incubated for 24 h at 37° C. with fresh SA-β-gal stain solution: 1 mg/ml 5-bromo-4-chloro-3-indolyl β-D-galactopyranoside (X-gal), 5 mM/liter potassium ferrocyanide, 5 mM/liter ferricyanide, 150 mM/liter NaCl, 2 mM/liter MgCl2, 0.01% sodium deoxycholate, and 0.02% Nonidet P-40. SA-β-gal-positive cells were counted manually by 3 independent investigators.

[6] = Scatchard analysis, CAC membranes

GHSR-1a, sequence (Q92847 whole entry): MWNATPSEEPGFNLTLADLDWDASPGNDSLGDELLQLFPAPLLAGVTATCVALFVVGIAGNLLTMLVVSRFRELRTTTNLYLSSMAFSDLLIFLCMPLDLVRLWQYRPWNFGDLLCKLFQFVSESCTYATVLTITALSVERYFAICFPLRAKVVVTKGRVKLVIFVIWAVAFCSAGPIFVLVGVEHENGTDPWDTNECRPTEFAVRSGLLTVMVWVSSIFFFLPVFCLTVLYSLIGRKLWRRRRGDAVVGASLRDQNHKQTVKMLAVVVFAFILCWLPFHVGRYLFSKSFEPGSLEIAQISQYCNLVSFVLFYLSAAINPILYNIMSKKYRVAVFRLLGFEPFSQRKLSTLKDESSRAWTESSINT

For “1-NH2Gly-Ser-Ser-Phe-Leu-Ser-Pro-Glu-His-Gln-Arg-Val-Gln-Gln-Arg-Lys-Glu-Ser-Lys-Lys-Pro-Pro-Ala-Lys-Leu-Gln-Pro-Arg-28 (H-GSSFLSPEHQRVQQRKESKKPPAKLQPR; ends and bridges not checked; listed as Homo sapiens) [UAG]”, the “p53 accumulation, p21 expression and phosphorylation of Rb” value (p53, p21, pRb [1]) was “prevented p53 accumulation, p21 expression and phosphorylation of Rb induced by AGE”, the “arterial specification (Ephrin B2, Notch1, Notch4; EphB4)” value (CAC [2]) was “able to undergo arterial specification” and the “p53 accumulation, phosphorylation of Rb and p21 expression” value (p53, p21, pRb [3]) was “prevented p53 accumulation, phosphorylation of Rb and p21 expression”. The “number of recovered cells (CAC)” value (CAC [4]) was “strong increase in the number of recovered cells”, the “binding to GHSR-1a” value (GHSR-1a) was “fails to bind GHSR-1a” and the “radioligand concentration at maximum specific binding (saturable)” value (CAC membranes; CAC membranes, FIG. 5B) was 2 nM. For the same substance, the Bmax (CAC membranes; [6]) was 10.7 fmol/mg membrane protein, the Hill coefficient (CAC membranes; [6]) was about 1 and the Kd (CAC membranes; Scatchard analysis, single class of binding sites on CAC) was 0.48 nM. For the same substance, the “number of senescent cells” value (CAC [5]) was “reduced the number of senescent cells”.
